Series [1] concerns the target T1, hERG channel (Homo sapiens, UniProt Q12809).
T1 construct: expressed in transfected cells; host or cells: HEK-293
As to the kind of experiment: hERG potassium channel inhibition assay (manual patch clamp). Format: cell-based. The following applies: HEK-293 cell line stably expressing hERG channel, at the tested concentrations. How it is done:
Instrumentation: HEKA EPC 10 patch clamp amplifier.
Method: in this experiment, the blocking effect of the compounds on the current of the HEK-293 cell line stably expressing hERG channel was measured using the manual patch clamp technique, and the risk of the compounds on the inhibition of cardiac hERG potassium channel was assessed by fitting the concentration effect relationship.
Procedure: in the patch clamp operation, firstly, a capillary glass tube was pulled into a recording electrode using a microelectrode puller, then an electrode filled with intracellular solution was mounted into a microelectrode holder. A microelectrode manipulator was operated under an inverted microscope to immerse the electrode into an extracellular solution and the electrode resistance (Rpip) was recorded. Then, the electrode was slowly brought into contact with the cell surface, and a negative pressure was applied for suction to form a GΩ seal. At this point, a fast capacitance compensation was performed, and a negative pressure was continuously applied to suck and break the cell membrane to form a whole cell recording mode. Finally, a slow capacitance compensation was performed and experimental parameters including series resistance (Rs) and the like were recorded. No leakage compensation was performed. When the hERG current recorded by the whole cell was stable, the administration of drugs commenced, and each drug concentration acted for about 5 min (or until the current stabilization) before detecting the next concentration. A cover glass covered with cells was placed in a recording bath under an inverted microscope, the blank control extracellular solution and the working solution of the compounds to be tested sequentially flowed through the recording bath from low concentration to high concentration by using gravity perfusion to act on the cells, and solution exchange was performed using a peristaltic pump during recording. The current measured by each cell in the extracellular solution without the compound served as its own control group. Each concentration was independently assessed twice. All electrophysiological tests were performed at room temperature.
Data Analysis: firstly, the tail current (Peak tail currentcompound) after the action of each drug concentration and the blank control tail current (Peak tail currentcontrol) were normalized, then the inhibition rate
corresponding to each drug concentration was calculated, and the mean (Mean), standard deviation (SD) and standard error (SE) of the inhibition rate corresponding to each concentration were calculated, with data expressed as Mean±SE. The calculation of IC50 value and the fitting of dose-response curve for the compound were performed using GraphPad Prism software.

For series [2], the target named is JAK3 JH1 kinase (Homo sapiens, UniProt P52333). As to the kind of experiment: JAK3 JH1 enzyme assay in vitro (TR-FRET). Format: biochemical. The following applies: TR-FRET; read-out: JAK 3 JH1 IC50.
Sequence of JAK3 JH1 kinase (P52333 822-1111 limits assumed): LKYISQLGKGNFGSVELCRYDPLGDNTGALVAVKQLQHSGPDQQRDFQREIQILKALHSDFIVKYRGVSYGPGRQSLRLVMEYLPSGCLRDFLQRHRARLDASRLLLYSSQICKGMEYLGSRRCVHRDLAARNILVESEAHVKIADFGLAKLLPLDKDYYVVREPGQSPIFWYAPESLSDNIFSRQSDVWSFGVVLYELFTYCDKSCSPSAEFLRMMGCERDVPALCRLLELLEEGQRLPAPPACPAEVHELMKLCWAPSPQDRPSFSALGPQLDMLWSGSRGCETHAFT
For series [3], the target named is TYK2 JH2 pseudokinase (Homo sapiens, UniProt P29597). As to the kind of experiment: TYK2 JH2 enzyme binding assay in vitro (TR-FRET). How it is done: Instrumentation: Envision microplate reader (PerkinElmer), ECHO550 (LABCYTE).
Sequence of TYK2 JH2 pseudokinase (P29597 589-875 limits assumed): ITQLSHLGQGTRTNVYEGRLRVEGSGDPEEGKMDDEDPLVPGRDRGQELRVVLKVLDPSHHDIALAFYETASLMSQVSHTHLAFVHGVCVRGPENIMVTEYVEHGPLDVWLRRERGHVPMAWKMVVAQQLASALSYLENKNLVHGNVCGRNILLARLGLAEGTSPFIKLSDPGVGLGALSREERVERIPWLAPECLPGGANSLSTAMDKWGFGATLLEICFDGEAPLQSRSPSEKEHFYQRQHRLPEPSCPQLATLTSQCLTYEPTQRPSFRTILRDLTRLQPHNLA
Method: the inhibitory effects of compounds on TYK2 JH2 pseudokinase was tested using time-resolved fluorescence resonance energy transfer (TR-FRET) method.
Procedure: compounds were prepared into 10 mM stock solutions using DMSO, which were further diluted into compound dilutions (200×) with different concentration gradients in DMSO, and the compound dilutions (200×) were transferred to a 384-well assay plate using an Echo instrument. […] TYK2 JH2 pseudokinase, Tb antibody, and Tracer working solutions were prepared using the dilution buffer, respectively. 5 uL of TYK2 JH2 pseudokinase working solution (final concentration 0.5 nM) was added to a 384-well assay plate, and centrifuged at 1000 rpm for 30 s. 5 uL of Tb antibody (final concentration 1×) was added to the 384-well assay plate, and centrifuged at 1000 rpm for 30 s. 5 uL of Tracer (final concentration 0.5 nM) was added to the 384-well assay plate, and centrifuged at 1000 rpm for 30 s. Incubation was performed at room temperature for 60 min, and then at 4° C. overnight.
Data Analysis: XLfit, a software developed by IDBS and integrated into the Microsoft Excel environment, was used to process and analyze the test data.

In series [4] the target is Ba/F3 cell line expressing TYK2 (Homo sapiens, UniProt P29597, cells depend on it, form not given). As to the kind of experiment: In vitro cellular inhibition assay (Ba/F3 cell proliferation, CellTiter-Glo). Type of series: cell-based. The following applies: read-out: IC50 (the source's name). Summed up: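 Ba/F3 cells dependent on TYK2 were exposed to serially diluted compound, then viability was read by CellTiter-Glo luminescence. Inhibition (%) was calculated from RLU relative to max and min controls, and IC50 was obtained by curve fitting.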

The structures appear in SMILES notation.

T1 sequence (Q12809 whole entry): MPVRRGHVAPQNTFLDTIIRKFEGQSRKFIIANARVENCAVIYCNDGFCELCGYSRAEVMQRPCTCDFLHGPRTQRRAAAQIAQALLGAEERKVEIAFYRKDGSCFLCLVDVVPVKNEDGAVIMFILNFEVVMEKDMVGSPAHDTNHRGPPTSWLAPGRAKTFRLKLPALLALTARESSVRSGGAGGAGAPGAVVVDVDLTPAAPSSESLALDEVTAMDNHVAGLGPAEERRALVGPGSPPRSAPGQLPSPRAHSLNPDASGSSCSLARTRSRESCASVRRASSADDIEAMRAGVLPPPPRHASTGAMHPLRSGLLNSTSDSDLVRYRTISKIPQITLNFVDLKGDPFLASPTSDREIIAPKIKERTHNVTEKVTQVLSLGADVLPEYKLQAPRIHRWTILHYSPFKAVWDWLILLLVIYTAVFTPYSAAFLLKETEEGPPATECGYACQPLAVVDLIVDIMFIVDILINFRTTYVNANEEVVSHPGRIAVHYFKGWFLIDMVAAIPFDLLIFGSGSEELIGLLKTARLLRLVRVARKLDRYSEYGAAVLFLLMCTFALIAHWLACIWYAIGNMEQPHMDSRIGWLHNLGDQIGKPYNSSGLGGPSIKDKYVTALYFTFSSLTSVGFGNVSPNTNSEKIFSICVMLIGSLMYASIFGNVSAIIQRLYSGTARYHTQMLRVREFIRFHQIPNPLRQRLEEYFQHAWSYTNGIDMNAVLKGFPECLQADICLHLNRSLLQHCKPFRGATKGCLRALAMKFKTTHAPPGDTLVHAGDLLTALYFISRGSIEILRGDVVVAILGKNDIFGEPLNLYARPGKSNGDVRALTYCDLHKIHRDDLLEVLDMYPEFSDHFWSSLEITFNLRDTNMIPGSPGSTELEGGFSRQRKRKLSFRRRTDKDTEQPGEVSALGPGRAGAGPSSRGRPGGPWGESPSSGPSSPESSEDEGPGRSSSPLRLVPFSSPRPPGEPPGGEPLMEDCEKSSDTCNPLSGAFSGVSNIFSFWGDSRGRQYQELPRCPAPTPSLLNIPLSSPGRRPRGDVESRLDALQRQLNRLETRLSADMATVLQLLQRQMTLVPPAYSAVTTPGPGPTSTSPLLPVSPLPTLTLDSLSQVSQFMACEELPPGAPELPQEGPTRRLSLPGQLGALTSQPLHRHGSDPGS

Take `[2H]C([2H])([2H])NC(=O)c1nnc(NC(=O)C2CC2)cc1Nc1cccc(C(=O)Nc2cccc(C)c2)c1OC` [Example 3]: the hERG inhibition result in series [1] was “no significant inhibition”. The 50% inhibitory concentration (IC50) was more than 10000 nM in series [2] and 0.274 nM in series [3]. Further, the GI50 in series [4] was in the range of 1 to 5 nM.

These data come from patent US20260098017A1, “NOVEL AROMATIC RING DERIVATIVE CONTAINING AMIDE SUBSTITUTION AND USE THEREOF” (TIANJIN PHARMACEUTICAL BIOTECHNOLOGY CO., LTD., priority 2022, published 2026).
